US9908868B2, “Isoindolinone compounds as GPR119 modulators for the treatment of diabetes, obesity, dyslipidemia and related disorders” (SANOFI, priority 2014, dated 2018)

Target: T1, human GPR119 (Homo sapiens, UniProt Q8TDV5)
T1 construct: expressed in transfected cells
T1 sequence (Q8TDV5 1-335): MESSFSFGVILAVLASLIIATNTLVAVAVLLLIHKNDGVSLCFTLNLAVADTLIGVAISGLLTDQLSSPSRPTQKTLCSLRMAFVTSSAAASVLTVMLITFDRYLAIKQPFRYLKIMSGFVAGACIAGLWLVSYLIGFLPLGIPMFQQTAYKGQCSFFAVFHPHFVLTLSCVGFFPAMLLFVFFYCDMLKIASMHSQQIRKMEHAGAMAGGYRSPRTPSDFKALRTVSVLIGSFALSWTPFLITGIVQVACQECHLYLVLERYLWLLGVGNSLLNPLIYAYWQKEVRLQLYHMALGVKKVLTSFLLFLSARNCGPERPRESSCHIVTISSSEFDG
Assay: Functional cellular assay measuring GPR119-mediated cAMP release (HTRF) in HEK-293 cells stably expressing recombinant human GPR119
Assay type: cell-based
Settings: cAMP response, cell line expressing human GPR119, 30 minutes at room temperature
Protocol: Functional Cellular Assays Measuring GPR119-Mediated cAMP Release
Compounds of the invention, which are agonists of GPR119, were characterized by functional assays measuring the cAMP response of HEK-293 cell lines stably expressing recombinant GPR119 from man, mouse or rat, or by using a hamster cell line HIT-T15 expressing GPR119 endogenously. The cAMP content was determined using a kit based on homogenous time-resolved fluorescence (HTRF) from Cisbio Corp. (cat. no. 62AM4PEC). For preparation, cells were split into T175 culture flasks and grown to near confluency in medium (DMEM/10% FCS for HEK-293 cells, and F-12K medium/10% horse serum/2.5% FCS for HIT-T15 cells, respectively). Medium was then removed and cells washed with PBS lacking calcium and magnesium ions, followed by proteinase treatment with accutase (Sigma-Aldrich, cat. no. A6964). Detached cells were washed and resuspended in assay buffer (1×HBSS; 20 mM HEPES, 0.1% BSA, 2 mM IBMX) and cellular density determined. They were then diluted to 400000 cells/mL and 25 μL-aliquots dispensed to the wells of 96-well plates. For measurement, 25 μL of test compound in assay buffer was added and incubated for 30 minutes at room temperature. After addition of HTRF reagents diluted in lysis buffer, the plates were incubated for 1 hour, followed by measuring the fluorescence ratio at 665 vs. 620 nm. Potency of the agonists was quantified by determining the concentrations that caused 50% of the maximal response/activation (EC50). See Table 7 for exemplary data obtained using the cell line expressing human GPR119.

Compound | EC50
CN(C)C(=O)C1NC(=O)c2cc(N3CC[C@@H](Oc4ccc(OCC5CC5)nc4)C3=O)ccc2N1C (single isomer, unassigned) [Example 1-41] | 2030 nM
CN(C)C(=O)C1NC(=O)c2cc(N3CC[C@@H](Oc4ccc(OCC5CC5)nc4)C3=O)ccc2N1C (single isomer, unassigned) [Example 1-42] | 366 nM
CCOc1ccc(O[C@@H]2CCN(c3cc(F)c4c(c3)C(=O)N(CC(=O)N3CCC(O)CC3)C4)C2=O)cn1 [Example 4-19, 6-[(3R)-3-[(6-ethoxy-3-pyridyl)oxy]-2-oxo-pyrrolidin-1-yl]-4-fluoro-2-[2-(4-hydroxy-1-piperidyl)-2-oxo-ethyl]isoindolin-1-one] | 297 nM
CCn1nnnc1-c1ccc(O[C@@H]2CCN(c3ccc4c(c3)C(=O)N(CC(=O)N(C)C)C4)C2=O)cc1 [Example 2-39, 2-[6-[(3R)-3-[4-(1-ethyltetrazol-5-yl)phenoxy]-2-oxo-pyrrolidin-1-yl]-1-oxo-isoindolin-2-yl]-N,N-dimethyl-acetamide] | 27000 nM
CN(C)C(=O)CN1Cc2ccc(N3CC[C@@H](Oc4ccc(C(=O)c5ccc(F)cc5)nc4)C3=O)cc2C1=O [Example 2-61, 2-[6-[(3R)-3-[[6-(4-fluorobenzoyl)-3-pyridyl]oxy]-2-oxo-pyrrolidin-1-yl]-1-oxo-isoindolin-2-yl]-N,N-dimethyl-acetamide] | 106 nM
COC(=O)CN1C(=O)c2cc(N3CC[C@@H](Oc4ccc(OCC5CC5)nc4)C3=O)ccc2C1C (stereo partly drawn) [Example 1-15, methyl 2-[5-[(3R)-3-[[6-(cyclopropylmethoxy)-3-pyridyl]oxy]-2-oxo-pyrrolidin-1-yl]-1-methyl-3-oxo-isoindolin-2-yl]acetate] | 221 nM
C[S+]([O-])CN1Cc2ccc(N3CC[C@@H](Oc4ccc(OCC5CC5)nc4)C3=O)cc2C1=O (stereo partly drawn) [Example 1-52, 6-[(3R)-3-[[6-(cyclopropylmethoxy)-3-pyridyl]oxy]-2-oxo-pyrrolidin-1-yl]-2-(methylsulfinylmethyl)isoindolin-1-one] | 124 nM
CN(C)C(=O)CN1Cc2ccc(N3CC[C@@H](Oc4ccc(Oc5ccccn5)cc4)C3=O)cc2C1=O [Example 2-23, N,N-dimethyl-2-[1-oxo-6-[(3R)-2-oxo-3-[4-(2-pyridyloxy)phenoxy]pyrrolidin-1-yl]isoindolin-2-yl]acetamide] | 261 nM
CCN(CC)C(=O)CN1Cc2ccc(N3CC[C@@H](Oc4ccc(OCC(F)(F)F)nc4)C3=O)cc2C1=O [Example 4-41, N,N-diethyl-2-[1-oxo-6-[(3R)-2-oxo-3-[[6-(2,2,2-trifluoroethoxy)-3-pyridyl]oxy]pyrrolidin-1-yl]isoindolin-2-yl]acetamide] | 40 nM
CC(C(=O)O)N1Cc2ccc(N3CC[C@@H](Oc4ccc(OCC5CC5)nc4)C3=O)cc2C1=O (stereo partly drawn) [Example 1-02, 2-[6-[(3R)-3-[[6-(cyclopropylmethoxy)-3-pyridyl]oxy]-2-oxo-pyrrolidin-1-yl]-1-oxo-isoindolin-2-yl]propanoic acid] | 2030 nM
C=CCOc1ccc(O[C@@H]2CCN(c3cc(F)c4c(c3)C(=O)N(CC(=O)N(C)C)C4)C2=O)cn1 [Example 6-03, 2-[6-[(3R)-3-[(6-allyloxy-3-pyridyl)oxy]-2-oxo-pyrrolidin-1-yl]-4-fluoro-1-oxo-isoindolin-2-yl]-N,N-dimethyl-acetamide] | 64 nM
O=C(CN1Cc2c(F)cc(N3CC[C@@H](Oc4ccc(OCCC5CC5)nc4)C3=O)cc2C1=O)N1CCCC1 [Example 4-26, 6-[(3R)-3-[[6-(2-cyclopropylethoxy)-3-pyridyl]oxy]-2-oxo-pyrrolidin-1-yl]-4-fluoro-2-(2-oxo-2-pyrrolidin-1-yl-ethyl)isoindolin-1-one] | 48 nM
C[S+]([O-])CN1Cc2ccc(N3CC[C@@H](Oc4ccc(C(=O)C5CC5)cc4)C3=O)cc2C1=O (stereo partly drawn) [Example 1-60, 6-[(3R)-3-[4-(cyclopropanecarbonyl)phenoxy]-2-oxo-pyrrolidin-1-yl]-2-(methylsulfinylmethyl)isoindolin-1-one] | 147 nM
CCCN1Cc2ccc(N3CC[C@@H](Oc4ccc(OCC5CC5)nc4)C3=O)cc2C1=O [Example 1-08, 6-[(3R)-3-[[6-(cyclopropylmethoxy)-3-pyridyl]oxy]-2-oxo-pyrrolidin-1-yl]-2-propyl-isoindolin-1-one] | 1050 nM
CN(C)C(=O)CN1Cc2ccc(N3CC[C@@H](Oc4ccc(-c5cnco5)cc4)C3=O)cc2C1=O [Example 2-37, N,N-dimethyl-2-[6-[(3R)-3-(4-oxazol-5-ylphenoxy)-2-oxo-pyrrolidin-1-yl]-1-oxo-isoindolin-2-yl]acetamide] | 862 nM
CN(C)C(=O)CN1Cc2ccc(N3CC[C@@H](Oc4ccc(C(=O)N5CCCC5)cc4)C3=O)cc2C1=O [Example 2-35, N,N-dimethyl-2-[1-oxo-6-[(3R)-2-oxo-3-[4-(pyrrolidine-1-carbonyl)phenoxy]pyrrolidin-1-yl]isoindolin-2-yl]acetamide] | 8660 nM
CN(C)C(=O)CN1Cc2ncc(N3CC[C@@H](Oc4ccc(C(=O)CC5CC5)cc4)C3=O)cc2C1=O [Example 1-16, 2-[3-[(3R)-3-[4-(2-cyclopropylacetyl)phenoxy]-2-oxo-pyrrolidin-1-yl]-5-oxo-7H-pyrrolo[3,4-b]pyridin-6-yl]-N,N-dimethyl-acetamide] | 360 nM
CS(=O)(=O)CN1Cc2ncc(N3CC[C@@H](Oc4ccc(C(=O)C5CC5)cc4)C3=O)cc2C1=O [Example 1-62, 3-[(3R)-3-[4-(cyclopropanecarbonyl)phenoxy]-2-oxo-pyrrolidin-1-yl]-6-(methylsulfonylmethyl)-7H-pyrrolo[3,4-b]pyridin-5-one] | 139 nM
CN(C)C(=O)CN1Cc2ccc(N3CC[C@@H](Oc4ccc(NCC5CC5)nc4)C3=O)cc2C1=O [Example 2-08, 2-[6-[(3R)-3-[[6-(cyclopropylmethylamino)-3-pyridyl]oxy]-2-oxo-pyrrolidin-1-yl]-1-oxo-isoindolin-2-yl]-N,N-dimethyl-acetamide] | 2120 nM
CCOC(=O)CN1Cc2ccc(N3CC[C@@H](Oc4ccc(OCC(F)(F)F)nc4)C3=O)cc2C1=O [Example 1-64, ethyl 2-[1-oxo-6-[(3R)-2-oxo-3-[[6-(2,2,2-trifluoroethoxy)-3-pyridyl]oxy]pyrrolidin-1-yl]isoindolin-2-yl]acetate] | 27 nM
CCOc1ccc(O[C@@H]2CCN(c3cc(F)c4c(c3)C(=O)N(CC(=O)O)C4)C2=O)cn1 [Example 5-02, 2-[6-[(3R)-3-[(6-ethoxy-3-pyridyl)oxy]-2-oxo-pyrrolidin-1-yl]-4-fluoro-1-oxo-isoindolin-2-yl]acetic acid] | 6080 nM
CN(C)C(=O)CN1Cc2ccc(N3CC[C@@H](Oc4cnc(OCC5CC5)c(Br)c4)C3=O)cc2C1=O [Example 2-47, 2-[6-[(3R)-3-[[5-bromo-6-(cyclopropylmethoxy)-3-pyridyl]oxy]-2-oxo-pyrrolidin-1-yl]-1-oxo-isoindolin-2-yl]-N,N-dimethyl-acetamide] | 90 nM
CN(C)C(=O)CN1Cc2ccc(N3CC[C@@H](Oc4ccc(Oc5ccc(F)cc5)cc4)C3=O)cc2C1=O [Example 2-16, 2-[6-[(3R)-3-[4-(4-fluorophenoxy)phenoxy]-2-oxo-pyrrolidin-1-yl]-1-oxo-isoindolin-2-yl]-N,N-dimethyl-acetamide] | 47 nM
CCOc1ccc(O[C@@H]2CCN(c3cc(F)c4c(c3)C(=O)N(CC(=O)NCCOC)C4)C2=O)cn1 [Example 4-18, 2-[6-[(3R)-3-[(6-ethoxy-3-pyridyl)oxy]-2-oxo-pyrrolidin-1-yl]-4-fluoro-1-oxo-isoindolin-2-yl]-N-(2-methoxyethyl)acetamide] | 381 nM
CN(CCO)C(=O)CN1Cc2ccc(N3CC[C@@H](Oc4ccc(Oc5ccc(F)cc5)nc4)C3=O)cc2C1=O [Example 4-12, 2-[6-[(3R)-3-[[6-(4-fluorophenoxy)-3-pyridyl]oxy]-2-oxo-pyrrolidin-1-yl]-1-oxo-isoindolin-2-yl]-N-(2-hydroxyethyl)-N-methyl-acetamide] | 297 nM
O=C1OCCC1N1Cc2ccc(N3CC[C@@H](Oc4ccc(OCC5CC5)nc4)C3=O)cc2C1=O (stereo partly drawn) [Example 1-06, 6-[(3R)-3-[[6-(cyclopropylmethoxy)-3-pyridyl]oxy]-2-oxo-pyrrolidin-1-yl]-2-(2-oxotetrahydrofuran-3-yl)isoindolin-1-one] | 151 nM
CN(C)C(=O)CN1Cc2ccc(N3CC[C@@H](Oc4ccc(OC(F)(F)F)c(Cl)c4)C3=O)cc2C1=O [Example 2-41, 2-[6-[(3R)-3-[3-chloro-4-(trifluoromethoxy)phenoxy]-2-oxo-pyrrolidin-1-yl]-1-oxo-isoindolin-2-yl]-N,N-dimethyl-acetamide] | 470 nM
